From patent US7557181B2, “Pan-HER antagonists and methods of use” (Molecular Logix, Inc., priority 2005, dated 2009)

Columns and labels:
[1] = system: MCF-7 cells (human breast cancer cell line that express HER2 and HER3); test: MCF-7 cell proliferation stimulation assay (WST-1); assay type: cell-based; conditions: serum-free, 72 hours, FIG. 4
Protocol: MCF-7 cells were obtained from the American Type Culture Collection (ATCC). Stock cultures of MCF-7 were maintained in Eagle's MEM supplemented with 1% ITS-X (Invitrogen) and 10% fetal bovine serum. For proliferation assays, MCF-7 cells were transferred to serum-free medium (SFM) for 24 hours and then trypsinized and suspended at 1E5 cells/mL in SFM. Fifty microliters of cell suspension (5000 cells) were plated per well in 96 well microtiter plates. Serial dilutions of HER ligands or mutant proteins were prepared at twice the final concentration in SFM and 50 ul was added to wells, bringing the final volume to 100 ul at the desired final concentration. Plates were incubated for 72 hours at 37 C in a humidified 5% CO2 atmosphere. Cell proliferation was determined by addition of 10 ul/well of WST-1 Cell Proliferation Reagent (Roche Applied Sciences, Indianapolis, Ind.) for the last three hours of the proliferation period.

[2] = system: HER5 cells (mouse fibroblast cells that overexpress human EGFR); test: HER5 cell proliferation stimulation assay (WST-1); assay type: cell-based; conditions: serum-free, 48 hour proliferation period, FIG. 3
Protocol: Hung (MD Anderson Cancer Center). Stock cultures of HER5 were propagated in D-MEM/F12 medium containing 10% fetal bovine serum, 100 units/ml of penicillin and 100 ug/ml of streptomycin in a water-jacketed incubator at 37° C. in a humidified 5% CO2 atmosphere. For HER5 proliferation assays, the cells were changed into DMEM/F12 without serum for 24 hours. Cells were then trypsinized and suspended at 1E5 cells/ml. […] Fifty microliters of cell suspension (5000 cells) were added to appropriate wells bringing the total volume to 100 ul at the desired concentrations. Plates were incubated for a 48 hour proliferation period. Cell proliferation was determined by addition of 10 ul/well of WST-1 Cell Proliferation Reagent (Roche Applied Sciences, Indianapolis, Ind.) for the last three hours of the proliferation period. WST-1 is a tetrazolium salt that is cleaved to formazan dye by mitochondrial dehydrogenases in viable cells. The amount of formazan was measured at 450 nm using a microplate reader (Dynex Technologies) with MRX Revelation software.

“Epidermal growth factor [EGF, agonistic ligand for EGFR]” was tested, and the “stimulation of MCF-7 cells (proliferation)” value [1] was “not” and the “stimulation of HER5 cells (proliferation)” value [2] was “can be stimulated”.
